In patent publication US12630829B2, “Gene encoding cytochrome P450 and use thereof” (KUMIAI CHEMICAL INDUSTRY CO., LTD., priority 2020, dated 2026):
Entries after “also recorded” stand apart in the source; their conditions may differ.

Experiments:
[1] = test system: AK454412 (wheat-derived P450) co-expressed with TaCPR; experiment: In vitro metabolism test using co-expression crude enzyme of AK454412 and TaCPR (LC/MS); format: in vitro ADME; conditions: 10 μM fenquinotrione, 1 mg crude enzyme, 1 mM β-NADPH, 30° C., 1 hour
Experimental: A single colony of the recombinant E. coli into which each of the above-described two expression constructs had been introduced was inoculated in 3 ml of LB liquid medium, followed by culturing at 37° C. and 200 rpm overnight. 2.5 mL of the resultant culture fluid was added to 250 mL of TB medium (containing 100 ppm carbenicillin and 50 ppm chloramphenicol) held in a 1 L Erlenmeyer flask, followed by culturing at 37° C. and 200 rpm until an OD600 of about 0.5 to 0.6 was obtained. After the resultant flask was cooled with ice, IPTG and aminolaevulinic acid were added thereto to final concentrations of 1 mM and 0.5 mM, respectively, followed by culturing at 20° C. and 110 rpm. 22 hours after the IPTG induction, the resultant culture fluid was centrifuged (4° C., 15,000 rpm, 1 min). A bacterial cell in the obtained 500 mL of culture fluid was suspended in 35 mL of P450 Buffer [50 mM potassium phosphate buffer (pH 7.3), 20% glycerol, 1 mM EDTA, and 1 mM DTT] to be sonicated, followed by centrifugation at 4° C. and at 6,000×g for 10 minutes. The supernatant was centrifuged at 4° C. and at 100,000×g for 1 hour, and a solution obtained by adding P450 Buffer by 1 mL to the obtained precipitate and homogenizing the resultant with a Teflon homogenizer was used as a co-expression crude enzyme solution for AK454412 and TaCPR. […]

[2] = test system: wild type Arabidopsis thaliana; experiment: Fenquinotrione sensitivity test on MS solid medium, wild type; format: in vivo; conditions: 10 nM in MS solid medium, 22° C., about 10 days, evaluated subjectively
Experimental: With a sensitivity difference from wild type Arabidopsis thaliana used as an index, it was verified whether or not the created transformant had resistance to fenquinotrione. In MS solid media in each of which fenquinotrione was added to a final concentration of 10,000, 1,000, 100, 10, or 1 nM, or 0.1% of DMSO was added as an untreated plot, sterilized seeds of Arabidopsis thaliana having AK454412 forced expression and wild type Arabidopsis thaliana were each seeded, and grown at 22° C. for about 10 days. The sensitivity to this drug was evaluated subjectively in accordance with the degree of chlorosis of acting symptom. The results are illustrated in FIG. 9. FIG. 9(A) illustrates results obtained in using the wild type Arabidopsis thaliana, and FIG. 9(B) illustrates results obtained in using the Arabidopsis thaliana having AK454412 forced expression.

[3] = test system: Arabidopsis thaliana having AK454412 forced expression; experiment: Fenquinotrione sensitivity test on MS solid medium, AK454412 forced expression; format: in vivo; conditions: 10,000 nM in MS solid medium, 22° C., about 10 days, evaluated subjectively
Experimental: First, a binary vector, pMLH7133-AK454412_for At, for transforming Arabidopsis thaliana was produced. With the pET-22b-AK454412 produced in Example 1 used as a template, PCR was performed using a primer set of pMLH-tplb Xba IF (Fd) and pMLH-tplb Sac IF (Rv) to obtain a DNA fragment in which XbaI/SacI recognition sequence and 15 bases of In-Fusion recognition sequence were added to a terminal of full length CDS sequence of the AK454412 gene. The obtained DNA fragment and pMLH7133 vector, having been digested with the restriction enzymes XbaI/SacI, were linked to each other with In-Fusion HD Cloning Kit (Clontech) to produce a binary vector, pMLH7133-AK454412_for At, for transforming Arabidopsis thaliana (FIG. 8). The obtained construct was introduced into Agrobacterium EHA105 strain by an electroporation method. The transformation of Arabidopsis thaliana was performed by a floral dip method using this recombinant Agrobacterium.
With a sensitivity difference from wild type Arabidopsis thaliana used as an index, it was verified whether or not the created transformant had resistance to fenquinotrione. […] The sensitivity to this drug was evaluated subjectively in accordance with the degree of chlorosis of acting symptom. […]

CYP81A6 = conditions: reported so far; cited from earlier work

COc1ccc(-n2c(=O)c(C(=O)C3C(=O)CCCC3=O)nc3c(Cl)cccc32)cc1 [fenquinotrione]
metabolic degradation of fenquinotrione (production of the demethylated product, LC/MS) [1]: metabolically degrades fenquinotrione to the demethylated product; also recorded: a parent peak of fenquinotrione was reduced, and a peak of the demethylated product appeared | wild type Arabidopsis thaliana having chlorosis [2]: ≥ 90% | chlorosis symptom [3]: not observed | metabolic reactivity of CYP81A6 against the compound (CYP81A6): exhibits metabolic reactivity
